# Source: patent publication US20230165873A1, “Methods of Use for Single Molecule Compounds Providing Multi-Target Inhibition to Treat Covid 19” (priority 2020, published 2023)
# Target: T1, BRD4-1 (Homo sapiens, UniProt O60885)
# T1 construct: BRD4-1
# Test: BRD4-1 in vitro inhibition
# Format: binding
# Details: not given
# Procedure: (§1) The kinase or bromodomain inhibitory activity of a compound of the invention can be determined by routine methods known to the skilled artisan without undue experimentation, or by procuring relevant analysis by a commercial vendor offering such services. […] In vivo, PI3K inhibition can be determined from target tissue biopsies by standard tissue processing in which cells are disrupted and Western Blot analysis is performed to determine the presence or absence of pAKT (substrate of PI3K) relative to a control sample. PI3K inhibition assays and BTK inhibition assays are known in the art and can be procured commercially through vendors such as Reaction Biology (Malvern, PA). The activity of a compound of the invention as an inhibitor of a bromodomain-containing protein, such as a BET protein, including BRD2, BRD3, BRD4, and/or BRDT, or an isoform or mutant thereof, may be determined in vitro, in vivo, or in a cell line. In vitro assays include assays that determine inhibition of bromodomain-containing proteins. Alternatively, inhibitor binding may be determined by running a competition experiment where a provided compound is incubated with a bromodomain-containing protein, such as a BET protein bound to known ligands, labeled or unlabeled. In vitro bromodomain inhibition assays can be performed using Alpha Screen Technology (Perkin Elmer Life and Analytical Sciences, Shelton, CT). In vivo bromodomain inhibition can be determined indirectly by evaluating the amount of a protein whose gene transcription is influenced or controlled by the bromodomain protein, for example, MYCN protein transcription is controlled by BRD4 (J.E. Delmore et al., Cell 2011, 146, 904-917; A. Puissant, Cancer Discov. 2013, 3, 308-323).
row,SMILES,IC50 [nM]
1,Cc1nn(-c2ccnc(Nc3ccc(-c4csc5c(=O)cc(N6CCNCC6)oc45)cc3)n2)cc1CN1CCC1 [Compound 55],1000 to 10000
2,Cc1nn(-c2ccnc(Nc3ccc(-c4csc5c(=O)cc(N6CCN(C(=O)OC(C)(C)C)CC6)oc45)cc3)n2)cc1CN1CC(O)C1 [Compound 56],1000 to 10000
3,Cc1nn(-c2ccnc(Nc3ccc(-c4csc5c(=O)cc(N6CCOCC6)oc45)cc3)n2)cc1CN(C)C [Compound 57],1000 to 10000
4,Cc1nn(-c2ccnc(Nc3ccc(-c4csc5c(=O)cc(N6CCOCC6)oc45)cc3)n2)cc1CN1CCOCC1 [Compound 58],1000 to 10000
5,Cc1nn(-c2ccnc(Nc3ccc(-c4csc5c(=O)cc(N6CCOCC6)oc45)cc3)n2)cc1CN(C)CCO [Compound 59],1000 to 10000

# Target: CDK6 cyclinD1 (Homo sapiens, UniProt Q00534)
# Sequence (Q00534 whole entry): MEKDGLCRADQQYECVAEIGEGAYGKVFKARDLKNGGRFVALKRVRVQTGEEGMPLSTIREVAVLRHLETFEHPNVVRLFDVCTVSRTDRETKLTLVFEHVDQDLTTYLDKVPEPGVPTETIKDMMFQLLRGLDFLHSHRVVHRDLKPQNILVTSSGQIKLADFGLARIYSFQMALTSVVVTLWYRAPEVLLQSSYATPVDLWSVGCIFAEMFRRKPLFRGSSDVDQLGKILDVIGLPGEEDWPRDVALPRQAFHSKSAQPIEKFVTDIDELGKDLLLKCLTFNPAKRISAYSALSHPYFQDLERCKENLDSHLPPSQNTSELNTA
# Sequence (P24385 whole entry partner): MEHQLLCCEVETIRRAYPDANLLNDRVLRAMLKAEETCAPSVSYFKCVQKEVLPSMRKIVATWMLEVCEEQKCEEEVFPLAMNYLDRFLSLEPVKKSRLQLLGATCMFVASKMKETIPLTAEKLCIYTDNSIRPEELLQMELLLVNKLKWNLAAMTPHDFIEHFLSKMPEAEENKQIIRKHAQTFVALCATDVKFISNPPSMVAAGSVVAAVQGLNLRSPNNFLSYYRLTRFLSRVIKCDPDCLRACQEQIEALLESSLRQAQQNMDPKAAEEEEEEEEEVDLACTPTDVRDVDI
# Test: CDK6 cyclinD1 in vitro inhibition
# Format: biochemical
# Details: not given
# Procedure: as §1
# (§2) IC50 inhibition data against the indicated targets were determined for compounds of the invention using standard in vitro assays (Tables 8 and 9).
row,SMILES,IC50 [nM]
1,Cc1nn(-c2ccnc(Nc3ccc(-c4csc5c(=O)cc(N6CCNCC6)oc45)cc3)n2)cc1CN1CCC1 [Compound 55],< 500
2,Cc1nn(-c2ccnc(Nc3ccc(-c4csc5c(=O)cc(N6CCN(C(=O)OC(C)(C)C)CC6)oc45)cc3)n2)cc1CN1CC(O)C1 [Compound 56],500 to 1000
3,Cc1nn(-c2ccnc(Nc3ccc(-c4csc5c(=O)cc(N6CCOCC6)oc45)cc3)n2)cc1CN(C)C [Compound 57],< 500
4,Cc1nn(-c2ccnc(Nc3ccc(-c4csc5c(=O)cc(N6CCOCC6)oc45)cc3)n2)cc1CN1CCOCC1 [Compound 58],> 45000
5,Cc1nn(-c2ccnc(Nc3ccc(-c4csc5c(=O)cc(N6CCOCC6)oc45)cc3)n2)cc1CN(C)CCO [Compound 59],1000 to 10000

# Target: PI3K gamma (Homo sapiens, UniProt P48736)
# Sequence (P48736 whole entry): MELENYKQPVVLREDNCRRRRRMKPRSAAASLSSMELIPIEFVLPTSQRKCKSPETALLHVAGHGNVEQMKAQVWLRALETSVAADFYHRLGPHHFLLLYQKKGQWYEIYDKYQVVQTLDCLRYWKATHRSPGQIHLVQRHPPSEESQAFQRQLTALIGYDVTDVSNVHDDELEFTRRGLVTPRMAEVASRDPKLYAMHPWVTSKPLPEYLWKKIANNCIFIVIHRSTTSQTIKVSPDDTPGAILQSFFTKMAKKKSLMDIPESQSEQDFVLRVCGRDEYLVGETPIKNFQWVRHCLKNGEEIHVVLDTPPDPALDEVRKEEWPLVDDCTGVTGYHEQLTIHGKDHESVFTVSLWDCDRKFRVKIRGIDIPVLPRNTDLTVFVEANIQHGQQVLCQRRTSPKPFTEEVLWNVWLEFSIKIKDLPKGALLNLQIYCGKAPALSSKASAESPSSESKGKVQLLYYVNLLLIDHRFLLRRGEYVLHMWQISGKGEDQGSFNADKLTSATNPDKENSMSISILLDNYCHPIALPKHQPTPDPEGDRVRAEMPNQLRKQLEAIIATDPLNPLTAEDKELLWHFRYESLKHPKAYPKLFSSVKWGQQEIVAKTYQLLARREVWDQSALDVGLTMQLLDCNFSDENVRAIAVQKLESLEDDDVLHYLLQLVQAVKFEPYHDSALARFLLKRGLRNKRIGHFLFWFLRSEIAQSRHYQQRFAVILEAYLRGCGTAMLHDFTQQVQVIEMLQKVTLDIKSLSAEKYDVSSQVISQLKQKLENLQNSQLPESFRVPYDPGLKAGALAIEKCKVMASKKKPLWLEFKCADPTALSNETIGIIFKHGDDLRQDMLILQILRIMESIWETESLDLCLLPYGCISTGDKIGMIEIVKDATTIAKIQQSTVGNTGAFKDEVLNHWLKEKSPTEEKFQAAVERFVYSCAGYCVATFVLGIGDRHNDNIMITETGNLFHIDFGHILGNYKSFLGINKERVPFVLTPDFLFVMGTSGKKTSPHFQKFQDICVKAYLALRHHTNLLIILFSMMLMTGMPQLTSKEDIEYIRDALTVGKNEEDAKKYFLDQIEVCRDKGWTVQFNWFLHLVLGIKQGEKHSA
# Test: PI3K gamma in vitro inhibition
# Format: biochemical
# Details: read-out: IC50 inhibition PI3K gamma
# Procedure: as §1, §2
row,SMILES,IC50 [nM]
1,Cc1nn(-c2ccnc(Nc3ccc(-c4csc5c(=O)cc(N6CCNCC6)oc45)cc3)n2)cc1CN1CCC1 [Compound 55],> 45000
2,Cc1nn(-c2ccnc(Nc3ccc(-c4csc5c(=O)cc(N6CCN(C(=O)OC(C)(C)C)CC6)oc45)cc3)n2)cc1CN1CC(O)C1 [Compound 56],10000 to 45000
3,Cc1nn(-c2ccnc(Nc3ccc(-c4csc5c(=O)cc(N6CCOCC6)oc45)cc3)n2)cc1CN(C)C [Compound 57],10000 to 45000
4,Cc1nn(-c2ccnc(Nc3ccc(-c4csc5c(=O)cc(N6CCOCC6)oc45)cc3)n2)cc1CN1CCOCC1 [Compound 58],10000 to 45000
5,Cc1nn(-c2ccnc(Nc3ccc(-c4csc5c(=O)cc(N6CCOCC6)oc45)cc3)n2)cc1CN(C)CCO [Compound 59],10000 to 45000

# Target: PI3K alpha (Homo sapiens, UniProt P42336)
# Sequence (P42336 whole entry): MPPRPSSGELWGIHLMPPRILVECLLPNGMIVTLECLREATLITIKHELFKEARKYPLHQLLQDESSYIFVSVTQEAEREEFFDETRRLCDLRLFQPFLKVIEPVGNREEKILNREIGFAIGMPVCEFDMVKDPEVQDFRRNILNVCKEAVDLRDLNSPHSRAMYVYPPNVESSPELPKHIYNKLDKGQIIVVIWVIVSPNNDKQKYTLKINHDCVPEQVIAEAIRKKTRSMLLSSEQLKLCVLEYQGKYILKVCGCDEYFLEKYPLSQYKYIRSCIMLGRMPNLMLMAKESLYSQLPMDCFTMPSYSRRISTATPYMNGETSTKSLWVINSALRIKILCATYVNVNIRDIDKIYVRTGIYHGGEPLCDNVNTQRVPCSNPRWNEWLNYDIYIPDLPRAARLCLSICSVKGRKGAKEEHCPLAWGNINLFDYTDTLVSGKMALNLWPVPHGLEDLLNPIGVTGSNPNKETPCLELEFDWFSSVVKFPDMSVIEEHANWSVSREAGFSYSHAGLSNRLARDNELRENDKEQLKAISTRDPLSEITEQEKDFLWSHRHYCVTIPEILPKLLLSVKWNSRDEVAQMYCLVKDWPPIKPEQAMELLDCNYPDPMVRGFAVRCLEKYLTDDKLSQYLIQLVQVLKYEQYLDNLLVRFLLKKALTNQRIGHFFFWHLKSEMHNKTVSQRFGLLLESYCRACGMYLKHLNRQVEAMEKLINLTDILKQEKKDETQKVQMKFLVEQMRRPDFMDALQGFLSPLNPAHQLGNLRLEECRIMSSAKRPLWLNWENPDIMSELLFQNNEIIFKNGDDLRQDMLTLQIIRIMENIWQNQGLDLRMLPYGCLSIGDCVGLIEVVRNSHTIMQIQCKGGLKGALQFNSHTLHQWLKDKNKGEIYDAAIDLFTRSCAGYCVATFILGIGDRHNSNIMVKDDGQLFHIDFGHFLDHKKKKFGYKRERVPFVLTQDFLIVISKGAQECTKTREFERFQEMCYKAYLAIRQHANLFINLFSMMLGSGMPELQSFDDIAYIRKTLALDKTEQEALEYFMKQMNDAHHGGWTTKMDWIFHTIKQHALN
# Sequence (P27986 whole entry partner): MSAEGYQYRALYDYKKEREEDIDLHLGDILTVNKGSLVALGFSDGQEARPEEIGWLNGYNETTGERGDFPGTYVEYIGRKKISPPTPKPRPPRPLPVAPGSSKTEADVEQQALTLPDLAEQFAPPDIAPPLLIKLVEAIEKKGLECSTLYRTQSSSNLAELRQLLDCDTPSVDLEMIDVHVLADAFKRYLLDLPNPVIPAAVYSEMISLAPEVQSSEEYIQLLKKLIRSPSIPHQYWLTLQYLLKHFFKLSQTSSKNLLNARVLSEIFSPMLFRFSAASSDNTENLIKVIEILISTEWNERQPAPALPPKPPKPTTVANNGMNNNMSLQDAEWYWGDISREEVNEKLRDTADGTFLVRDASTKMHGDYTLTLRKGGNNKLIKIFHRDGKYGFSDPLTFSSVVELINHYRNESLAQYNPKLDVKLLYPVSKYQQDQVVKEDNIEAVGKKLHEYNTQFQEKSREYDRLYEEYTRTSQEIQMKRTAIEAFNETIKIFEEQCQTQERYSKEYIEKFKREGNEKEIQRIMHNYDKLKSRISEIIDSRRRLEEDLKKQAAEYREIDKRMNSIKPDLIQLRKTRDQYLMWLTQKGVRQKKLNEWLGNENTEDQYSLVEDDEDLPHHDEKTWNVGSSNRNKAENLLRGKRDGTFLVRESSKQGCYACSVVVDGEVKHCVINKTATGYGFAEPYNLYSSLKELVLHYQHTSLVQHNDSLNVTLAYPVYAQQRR
# Test: PI3K alpha in vitro inhibition
# Format: biochemical
# Details: not given
# Procedure: as §1
row,SMILES,IC50 [nM]
1,Cc1nn(-c2ccnc(Nc3ccc(-c4csc5c(=O)cc(N6CCNCC6)oc45)cc3)n2)cc1CN1CCC1 [Compound 55],> 45000
2,Cc1nn(-c2ccnc(Nc3ccc(-c4csc5c(=O)cc(N6CCN(C(=O)OC(C)(C)C)CC6)oc45)cc3)n2)cc1CN1CC(O)C1 [Compound 56],1000 to 10000
3,Cc1nn(-c2ccnc(Nc3ccc(-c4csc5c(=O)cc(N6CCOCC6)oc45)cc3)n2)cc1CN(C)C [Compound 57],500 to 1000
4,Cc1nn(-c2ccnc(Nc3ccc(-c4csc5c(=O)cc(N6CCOCC6)oc45)cc3)n2)cc1CN1CCOCC1 [Compound 58],500 to 1000
5,Cc1nn(-c2ccnc(Nc3ccc(-c4csc5c(=O)cc(N6CCOCC6)oc45)cc3)n2)cc1CN(C)CCO [Compound 59],1000 to 10000

# Target: T2, BRD4-2 (Homo sapiens, UniProt O60885)
# T2 construct: BRD4-2
# Test: BRD4-2 in vitro inhibition
# Format: binding
# Details: not given
# Procedure: as §1
row,SMILES,IC50 [nM]
1,Cc1nn(-c2ccnc(Nc3ccc(-c4csc5c(=O)cc(N6CCNCC6)oc45)cc3)n2)cc1CN1CCC1 [Compound 55],> 45000
2,Cc1nn(-c2ccnc(Nc3ccc(-c4csc5c(=O)cc(N6CCN(C(=O)OC(C)(C)C)CC6)oc45)cc3)n2)cc1CN1CC(O)C1 [Compound 56],> 45000
3,Cc1nn(-c2ccnc(Nc3ccc(-c4csc5c(=O)cc(N6CCOCC6)oc45)cc3)n2)cc1CN(C)C [Compound 57],1000 to 10000
4,Cc1nn(-c2ccnc(Nc3ccc(-c4csc5c(=O)cc(N6CCOCC6)oc45)cc3)n2)cc1CN1CCOCC1 [Compound 58],1000 to 10000
5,Cc1nn(-c2ccnc(Nc3ccc(-c4csc5c(=O)cc(N6CCOCC6)oc45)cc3)n2)cc1CN(C)CCO [Compound 59],1000 to 10000

# Target: Syk (Homo sapiens, UniProt P43405)
# Test: Syk in vitro inhibition
# Format: biochemical
# Details: not given
# Procedure: as §1, §2
row,SMILES,IC50 [nM]
1,Cc1nn(-c2ccnc(Nc3ccc(-c4csc5c(=O)cc(N6CCNCC6)oc45)cc3)n2)cc1CN1CCC1 [Compound 55],< 500
2,Cc1nn(-c2ccnc(Nc3ccc(-c4csc5c(=O)cc(N6CCN(C(=O)OC(C)(C)C)CC6)oc45)cc3)n2)cc1CN1CC(O)C1 [Compound 56],< 500
3,Cc1nn(-c2ccnc(Nc3ccc(-c4csc5c(=O)cc(N6CCOCC6)oc45)cc3)n2)cc1CN(C)C [Compound 57],< 500
4,Cc1nn(-c2ccnc(Nc3ccc(-c4csc5c(=O)cc(N6CCOCC6)oc45)cc3)n2)cc1CN1CCOCC1 [Compound 58],> 45000
5,Cc1nn(-c2ccnc(Nc3ccc(-c4csc5c(=O)cc(N6CCOCC6)oc45)cc3)n2)cc1CN(C)CCO [Compound 59],500 to 1000

# Target: PI3K delta (Homo sapiens, UniProt O00329)
# Sequence (O00329 whole entry): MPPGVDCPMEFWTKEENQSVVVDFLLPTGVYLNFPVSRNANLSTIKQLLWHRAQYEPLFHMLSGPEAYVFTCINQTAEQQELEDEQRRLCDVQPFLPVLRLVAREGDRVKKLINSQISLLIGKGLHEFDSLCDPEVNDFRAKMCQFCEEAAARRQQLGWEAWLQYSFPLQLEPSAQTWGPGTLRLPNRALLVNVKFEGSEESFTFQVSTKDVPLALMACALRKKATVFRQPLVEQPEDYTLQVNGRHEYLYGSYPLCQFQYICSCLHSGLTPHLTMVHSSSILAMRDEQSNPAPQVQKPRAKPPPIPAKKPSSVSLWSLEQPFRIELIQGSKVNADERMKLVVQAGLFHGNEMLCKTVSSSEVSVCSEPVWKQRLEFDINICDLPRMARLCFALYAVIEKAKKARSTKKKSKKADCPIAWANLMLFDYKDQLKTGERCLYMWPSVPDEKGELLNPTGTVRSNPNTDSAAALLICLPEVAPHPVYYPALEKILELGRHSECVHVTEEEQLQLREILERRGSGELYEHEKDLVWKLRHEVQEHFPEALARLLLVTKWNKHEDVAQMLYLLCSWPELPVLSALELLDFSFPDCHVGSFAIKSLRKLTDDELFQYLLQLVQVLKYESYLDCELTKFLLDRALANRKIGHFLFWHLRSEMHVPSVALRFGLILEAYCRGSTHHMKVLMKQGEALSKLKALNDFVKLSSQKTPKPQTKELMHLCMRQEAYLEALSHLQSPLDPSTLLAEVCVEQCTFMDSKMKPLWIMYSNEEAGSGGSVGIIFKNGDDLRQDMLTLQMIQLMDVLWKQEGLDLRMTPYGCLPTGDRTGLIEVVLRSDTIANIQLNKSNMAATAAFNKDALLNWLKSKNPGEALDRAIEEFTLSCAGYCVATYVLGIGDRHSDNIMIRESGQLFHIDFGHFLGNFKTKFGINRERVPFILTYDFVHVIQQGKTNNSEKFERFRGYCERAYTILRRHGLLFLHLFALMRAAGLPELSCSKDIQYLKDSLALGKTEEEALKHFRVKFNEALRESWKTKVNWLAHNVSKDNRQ
# Sequence (P27986 whole entry partner): as the sequence (P27986 whole entry partner) above
# Test: PI3K delta in vitro inhibition
# Format: biochemical
# Details: not given
# Procedure: as §1, §2
row,SMILES,IC50 [nM]
1,Cc1nn(-c2ccnc(Nc3ccc(-c4csc5c(=O)cc(N6CCNCC6)oc45)cc3)n2)cc1CN1CCC1 [Compound 55],1000 to 10000
2,Cc1nn(-c2ccnc(Nc3ccc(-c4csc5c(=O)cc(N6CCN(C(=O)OC(C)(C)C)CC6)oc45)cc3)n2)cc1CN1CC(O)C1 [Compound 56],1000 to 10000
3,Cc1nn(-c2ccnc(Nc3ccc(-c4csc5c(=O)cc(N6CCOCC6)oc45)cc3)n2)cc1CN(C)C [Compound 57],500 to 1000
4,Cc1nn(-c2ccnc(Nc3ccc(-c4csc5c(=O)cc(N6CCOCC6)oc45)cc3)n2)cc1CN1CCOCC1 [Compound 58],< 500
5,Cc1nn(-c2ccnc(Nc3ccc(-c4csc5c(=O)cc(N6CCOCC6)oc45)cc3)n2)cc1CN(C)CCO [Compound 59],1000 to 10000

# Target: CDK4 cyclinD1 (Homo sapiens, UniProt P11802)
# Sequence (P11802 whole entry): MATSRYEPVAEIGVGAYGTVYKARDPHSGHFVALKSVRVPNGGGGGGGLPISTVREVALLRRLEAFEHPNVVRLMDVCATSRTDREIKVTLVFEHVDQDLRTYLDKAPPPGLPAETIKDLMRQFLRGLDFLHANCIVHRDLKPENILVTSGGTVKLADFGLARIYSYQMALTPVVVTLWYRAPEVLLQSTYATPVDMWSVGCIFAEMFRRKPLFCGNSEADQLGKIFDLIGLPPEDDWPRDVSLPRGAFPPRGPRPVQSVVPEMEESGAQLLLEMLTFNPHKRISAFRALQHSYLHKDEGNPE
# Sequence (P24385 whole entry partner): as the sequence (P24385 whole entry partner) above
# Test: CDK4 cyclinD1 in vitro inhibition
# Format: biochemical
# Details: not given
# Procedure: as §1, §2
row,SMILES,IC50 [nM]
1,Cc1nn(-c2ccnc(Nc3ccc(-c4csc5c(=O)cc(N6CCNCC6)oc45)cc3)n2)cc1CN1CCC1 [Compound 55],1000 to 10000
2,Cc1nn(-c2ccnc(Nc3ccc(-c4csc5c(=O)cc(N6CCN(C(=O)OC(C)(C)C)CC6)oc45)cc3)n2)cc1CN1CC(O)C1 [Compound 56],1000 to 10000
3,Cc1nn(-c2ccnc(Nc3ccc(-c4csc5c(=O)cc(N6CCOCC6)oc45)cc3)n2)cc1CN(C)C [Compound 57],< 500
4,Cc1nn(-c2ccnc(Nc3ccc(-c4csc5c(=O)cc(N6CCOCC6)oc45)cc3)n2)cc1CN1CCOCC1 [Compound 58],> 45000
5,Cc1nn(-c2ccnc(Nc3ccc(-c4csc5c(=O)cc(N6CCOCC6)oc45)cc3)n2)cc1CN(C)CCO [Compound 59],1000 to 10000
